ChEMBL document CHEMBL4346660, “Cryptolepine and aromathecin based mimics as potent G-quadruplex-binding, DNA-cleavage and anticancer agents: Design, synthesis and DNA targeting-induced apoptosis” (Eur J Med Chem, 2019)
Activity calls are given as the source filed them. The calls are words filed in the database; no cut-off is given here.

How the values were obtained:
[1] = test system: MGC-803; assay: Cell cycle arrest in human MGC803 cells assessed as accumulation of cells at G1 phase at 0.5 uM incubated for 48 hrs by propidium iodide staining-based flow cytometry (reference value: 53.96%); type: functional
[2] = test system: MGC-803; assay: Antiproliferative activity against human MGC803 cells assessed as inhibition of cell proliferation at 10 uM measured for 12 to 72 hrs by MTT assay relative to control; type: functional
[3] = test system: MGC-803; assay: Induction of apoptosis in human MGC803 cells assessed as appearance of irregular cell shape at 2.5 uM after 24 hrs by Hoechst 33258 staining-based fluorescence microscopic method; type: functional
[4] = test system: MGC-803; assay: Induction of apoptosis in human MGC803 cells assessed as early apoptotic cells at 1 uM incubated for 24 hrs by Annexin V-FITC/propidium iodide staining based flow cytometry (reference value: 0.97 +/- 0.10 %); type: functional
[5] = test system: Quadruplex DNA; assay: Binding affinity to human Pu27 G-quadruplex DNA assessed as Stern-Volmer quenching constant by fluorometric titration assay; type: nucleic-acid assay
[6] = test system: MGC-803; assay: Cell cycle arrest in human MGC803 cells assessed as accumulation of cells at S phase at 0.5 uM incubated for 48 hrs by propidium iodide staining based flow cytometry (reference value: 32.97%); type: functional
[7] = test system: MGC-803; assay: Induction of apoptosis in human MGC803 cells assessed as late apoptotic cells at 1 uM incubated for 24 hrs by Annexin V-FITC/propidium iodide staining based flow cytometry (reference value: 0.69 +/- 0.05 %); type: functional
[8] = test system: MGC-803; assay: Cell cycle arrest in human MGC803 cells assessed as increase in p27 expression at 0.5 to 2.5 uM incubated for 24 hrs by Western blot analysis; type: functional, cell-based
[9] = test system: MGC-803; assay: Induction of apoptosis in human MGC803 cells assessed as viable cells at 1 uM incubated for 24 hrs by Annexin V-FITC/propidium iodide staining based flow cytometry (reference value: 96.53+/-2.11%); type: functional; details: MGC-803, 24 h, read-out: Activity
[10] = test system: MGC-803; assay: Cell cycle arrest in human MGC803 cells assessed as down regulation of cyclin B1 expression at 0.5 to 2.5 uM incubated for 24 hrs by Western blot analysis; type: functional, cell-based
[11] = test system: MGC-803; assay: Induction of apoptosis in human MGC803 cells assessed as activated caspase-3 level at 2.5 uM after 24 hrs by FITC staining-based flow cytometric analysis (Rvb= 3.46%); type: functional
[12] = test system: MGC-803; assay: Induction of apoptosis in human MGC803 cells assessed as necrotic cells at 0.5 uM incubated for 24 hrs by Annexin V-FITC/propidium iodide staining based flow cytometry (reference value: 1.81 +/- 0.09 %); type: functional
[13] = test system: MGC-803; assay: Induction of apoptosis in human MGC803 cells assessed as increase in ROS generation incubated for 24 hrs by DCFH-DA dye-based flow cytometric analysis; type: functional, cell-based
[14] = test system: MGC-803; assay: Induction of apoptosis in human MGC803 cells assessed as necrotic cells at 2.5 uM incubated for 24 hrs by Annexin V-FITC/propidium iodide staining based flow cytometry (reference value: 1.81 +/- 0.09 %); type: functional
[15] = test system: Calf thymus DNA; assay: Binding affinity to calf thymus DNA assessed as hyperchromic effect at 10:1 compound to DNA ratio incubated for 5 mins by UV-Vis spectroscopy; type: nucleic-acid assay; details: Bos taurus
[16] = test system: MGC-803; assay: Induction of mitochondrial membrane potential loss in human MGC803 cells at 0.5 to 2.5 uM measured after 24 by JC1 staining-based microscopic analysis; type: functional, cell-based
[17] = test system: MGC-803; assay: Induction of apoptosis in human MGC803 cells assessed as cell shrinkage at 0.5 to 2.5 uM after 24 hrs by Hoechst 33258 staining-based fluorescence microscopic method; type: functional
[18] = test system: MGC-803; assay: Induction of apoptosis in human MGC803 cells assessed as early apoptotic cells at 0.5 uM incubated for 24 hrs by Annexin V-FITC/propidium iodide staining based flow cytometry (reference value: 0.97 +/- 0.10 %); type: functional
[19] = test system: MGC-803; assay: Cell cycle arrest in human MGC803 cells assessed as increase in p21 expression at 0.5 to 2.5 uM incubated for 24 hrs by Western blot analysis; type: functional, cell-based
[20] = test system: MGC-803; assay: Induction of apoptosis in human MGC803 cells assessed as viable cells at 0.5 uM incubated for 24 hrs by Annexin V-FITC/propidium iodide staining based flow cytometry (reference value: 96.53+/-2.11%); type: functional; details: MGC-803, 24 h, read-out: Activity
[21] = test system: MGC-803; assay: Cell cycle arrest in human MGC803 cells assessed as change in cyclin A2 expression at 0.5 to 2.5 uM incubated for 24 hrs by immunoblot analysis; type: functional, cell-based
[22] = test system: MGC-803; assay: Cell cycle arrest in human MGC803 cells assessed as accumulation of cells at G1 phase at 1 uM incubated for 48 hrs by propidium iodide staining-based flow cytometry (reference value: 53.96%); type: functional
[23] = test system: HepG2; assay: Antiproliferative activity against human HepG2 cells assessed as reduction in cell viability incubated for 48 hrs by MTT assay; type: functional, cell-based; details: HepG2, 48 h
[24] = test system: MGC-803; assay: Cell cycle arrest in human MGC803 cells assessed as accumulation of cells at S phase at 1 uM incubated for 48 hrs by propidium iodide staining based flow cytometry (reference value: 32.97%); type: functional
[25] = test system: Quadruplex DNA; assay: Binding affinity to human HTG21 G-quadruplex DNA at 10 uM incubated for 5 mins by CD spectroscopy; type: nucleic-acid assay
[26] = test system: MGC-803; assay: Induction of apoptosis in human MGC803 cells assessed as late apoptotic cells at 2.5 uM incubated for 24 hrs by Annexin V-FITC/propidium iodide staining based flow cytometry (reference value: 0.69 +/- 0.05 %); type: functional
[27] = test system: MGC-803; assay: Cell cycle arrest in human MGC803 cells assessed as accumulation of cells at G2/M phase at 2.5 uM incubated for 48 hrs by propidium iodide staining-based flow cytometry (reference value: 13.07%); type: functional
[28] = test system: MGC-803; assay: Cell cycle arrest in human MGC803 cells assessed as accumulation of cells at G2/M phase incubated for 48 hrs by propidium iodide staining-based flow cytometry; type: functional
[29] = test system: MGC-803; assay: Cell cycle arrest in human MGC803 cells assessed as accumulation of cells at G1 phase at 2.5 uM incubated for 48 hrs by propidium iodide staining-based flow cytometry (reference value: 53.96%); type: functional

## CN(C)CCCNc1c2c(nc3ccc(F)cc13)-c1ccccc1C2
[1]
  Activity: 51.5%
[2]
  inhibition at 10 µM: 40 to 95%
[3]
  Activity: Active
[4]
  Activity: 22%
[5]
  Kq: 1.5 ×10⁷ No_unit
[6]
  Activity: 44.73%
[7]
  Activity: 15%
[8]
  Activity: Active
[9]
  viability at 1 µM: 58.3%
[10]
  Activity: Active
[11]
  Activity: 45.1%
[12]
  Activity: 1.76%
[13]
  Activity: Dose-dependent effect
[14]
  Activity: 4.01%
[15]
  Activity: Active
[16]
  Activity: Active
[17]
  Activity: Active
[18]
  Activity: 13.8%
[19]
  Activity: Active
[20]
  viability at 0.5 µM: 80.3%
[21]
  Activity: inactive
[22]
  Activity: 24.11%
[23]
  IC50: 1770 nM
[24]
  Activity: 52.87%
[25]
  Activity: Active
[26]
  Activity: 7.45%
[27]
  Activity: 31.82%
[28]
  Activity: Dose-dependent effect
[29]
  Activity: 8.74%
